From US20230339886A1 (University of Florida Research Foundation, Incorporated, priority 2020, published 2023)

These compounds were tested against T1, REV-ERBα LBD (human; residues 281-614 Δ324-422) (Homo sapiens, UniProt P20393, DEL324-422) (assay: TR-FRET corepressor interaction assay (REV-ERBα LBD, FITC-SMRT peptide)). Conditions: FITC-SMRT peptide, read-out: REVERBα agonism (EC50 class, FRET assay).
T1 construct: 6×Histag-REV-ERBα LBD (human; residues 281-614 Δ324-422); made in house; host or cells: Escherichia coli
T1 sequence (P20393 with tags, fused parts or gaps DEL324-422): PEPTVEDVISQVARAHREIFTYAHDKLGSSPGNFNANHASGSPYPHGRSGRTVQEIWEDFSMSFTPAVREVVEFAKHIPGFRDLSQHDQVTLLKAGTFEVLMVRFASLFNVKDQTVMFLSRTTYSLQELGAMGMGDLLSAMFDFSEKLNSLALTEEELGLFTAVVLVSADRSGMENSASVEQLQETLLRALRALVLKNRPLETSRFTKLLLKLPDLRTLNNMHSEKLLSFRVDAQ
T1 sequence (Q9Y618 2335-2356 partner limits assumed): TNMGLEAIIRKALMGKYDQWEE
Assay type: biochemical
Procedure, shortened: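 Compound serial dilutions (in DMSO, triplicate) incubated 2 h at 4 °C; Tb donor excited at 340 nm, emission read at 495 nm and FITC acceptor at 520 nm. TR-FRET ratio (520/495 nm) plotted against ligand concentration and fitted to a sigmoidal dose-response curve.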

EC50 [nM]	SMILES
500 to 3000	NC(=O)c1cccc(F)c1-c1ccc2c([C@H](NS(=O)(=O)C3CCC3)C(F)(F)F)cn(C3CCC3)c2c1 [Example 439, (S)-2-(3-(1-(cyclobutanesulfonamido)-2,2,2-trifluoroethyl)-1-cyclobutyl-1H-indol-6-yl)-3-fluorobenzamide]
< 500	CC(C)(C)Cn1cc([C@H](NS(=O)(=O)C2CCC2)C(F)(F)F)c2cc(F)c(-c3ccccc3C#N)cc21 [Example 440, (S)—N-(1-(6-(2-cyanophenyl)-5-fluoro-1-neopentyl-1H-indol-3-yl)-2,2,2-trifluoroethyl)cyclobutanesulfonamide]
< 500	CC(C)(C)Cn1cc([C@H](NS(=O)(=O)C2CCC2)C(F)(F)F)c2cc(F)c(-c3cnccc3C#N)cc21 [Example 441, (S)—N-(1-(6-(4-cyanopyridin-3-yl)-5-fluoro-1-neopentyl-1H-indol-3-yl)-2,2,2-trifluoroethyl)cyclobutanesulfonamide]
500 to 3000	CC(F)(F)Cn1cc([C@H](NS(=O)(=O)C2CCC2)C(F)(F)F)c2ccc(-c3ccccc3C(F)(F)F)cc21 [Example 442, (S)—N-(1-(1-(2,2-difluoropropyl)-6-(2-(trifluoromethyl)phenyl)-1H-indol-3-yl)-2,2,2-trifluoroethyl)cyclobutanesulfonamide]
< 500	CC(C)(C)Cn1cc([C@H](NS(=O)(=O)C2CCC2)C(F)(F)F)c2cc(F)c(-c3ncccc3C(F)(F)F)cc21 [Example 444, (S)—N-(2,2,2-trifluoro-1-(5-fluoro-1-neopentyl-6-(3-(trifluoromethyl)pyridin-2-yl)-1H-indol-3-yl)ethyl)cyclobutanesulfonamide]
< 500	[2H]C(C)(NS(=O)(=O)C1CCC1)c1cn(CC(C)(C)C)c2cc(-c3ccccc3C(F)(F)F)ccc12 (stereo not drawn) [Example 445, N-(1-(1-neopentyl-6-(2-(trifluoromethyl)phenyl)-1H-indol-3-yl)ethyl-1-d)cyclobutanesulfonamide]
< 500	CCC(C)n1cc([C@H](NS(=O)(=O)C2CCC2)C(F)(F)F)c2ccc(-c3ccccc3C(F)(F)F)cc21 (stereo partly drawn) [Example 446, N-((1S)-1-(1-(sec-butyl)-6-(2-(trifluoromethyl)phenyl)-1H-indol-3-yl)-2,2,2-trifluoroethyl)cyclobutanesulfonamide]
< 500	CC(C)Cn1cc([C@H](NS(=O)(=O)C2CC2)C(F)(F)F)c2cc(F)c(-c3ccnc4c3CCCC4)cc21 [Example 454, N-[(1S)-2,2,2-trifluoro-1-[5-fluoro-1-isobutyl-6-(5,6,7,8-tetrahydroquinolin-4-yl)indol-3-yl]ethyl]cyclopropanesulfonamide]
< 500	CC(C)Cn1cc([C@H](NS(=O)(=O)C2CC2)C(F)(F)F)c2cc(F)c(-c3ccncn3)cc21 [Example 455, (S)—N-(2,2,2-trifluoro-1-(5-fluoro-1-isobutyl-6-(pyrimidin-4-yl)-1H-indol-3-yl)ethyl)cyclopropanesulfonamide]
500 to 3000	Cc1cn[nH]c1-c1cc2c(cc1F)c([C@H](NS(=O)(=O)C1CC1)C(F)(F)F)cn2CC(C)C [Example 456, (S)—N-(2,2,2-trifluoro-1-(5-fluoro-1-isobutyl-6-(4-methyl-1H-pyrazol-5-yl)-1H-indol-3-yl)ethyl)cyclopropanesulfonamide]
500 to 3000	CC(C)Cn1cc([C@H](NS(=O)(=O)C2CC2)C(F)(F)F)c2cc(F)c(-c3cscn3)cc21 [Example 457, N-[(1S)-2,2,2-trifluoro-1-(5-fluoro-1-isobutyl-6-thiazol-4-yl-indol-3-yl)ethyl]cyclopropanesulfonamide]
500 to 3000	CC(C)(C)Cn1cc([C@H](NS(=O)(=O)C2CC2)C(F)(F)F)c2cc(C(F)(F)F)c(-c3ccncc3)cc21 [Example 458, (S)—N-(2,2,2-trifluoro-1-(1-neopentyl-6-(pyridin-4-yl)-5-(trifluoromethyl)-1H-indol-3-yl)ethyl)cyclopropanesulfonamide]
< 500	CC(C)(C)Cn1cc([C@H](NS(=O)(=O)C2COC2)C(F)(F)F)c2cc(F)c(-c3ccccc3C(F)(F)F)cc21 [Example 459, (S)—N-(2,2,2-trifluoro-1-(5-fluoro-1-neopentyl-6-(2-(trifluoromethyl)phenyl)-1H-indol-3-yl)ethyl)oxetane-3-sulfonamide]
< 500	CC(C)(C)Cn1cc([C@H](NS(=O)(=O)C2CC2)C(F)(F)F)c2ccc(-c3c(F)cccc3C#N)cc21 [Example 460, (S)—N-(1-(6-(2-cyano-6-fluorophenyl)-1-neopentyl-1H-indol-3-yl)-2,2,2-trifluoroethyl)cyclopropanesulfonamide]
> 3000	CC(C)(C)Cn1cc([C@H](NS(=O)(=O)C2CCOC2)C(F)(F)F)c2cc(F)c(-c3ccccc3C(F)(F)F)cc21 (stereo partly drawn) [Example 461, N—((S)-2,2,2-trifluoro-1-(5-fluoro-1-neopentyl-6-(2-(trifluoromethyl)phenyl)-1H-indol-3-yl)ethyl)tetrahydrofuran-3-sulfonamide]
< 500	CC(C)(C)Cn1cc([C@H](NS(=O)(=O)C2CC2)C(F)(F)F)c2ccc(-c3ccccc3C#N)cc21 [Example 462, (S)—N-(1-(6-(2-cyanophenyl)-1-neopentyl-1H-indol-3-yl)-2,2,2-trifluoroethyl)cyclopropanesulfonamide]
< 500	Cc1cccc(C(F)(F)F)c1-c1ccc2c([C@H](NS(=O)(=O)C3CC3)C(F)(F)F)cn(CC(C)(C)C)c2c1 [Example 463, (S)—N-(2,2,2-trifluoro-1-(6-(2-methyl-6-(trifluoromethyl)phenyl)-1-neopentyl-1H-indol-3-yl)ethyl)cyclopropanesulfonamide]
< 500	CC(C)(C)Cn1cc([C@H](NS(=O)(=O)C2CC2)C(F)(F)F)c2ccc(-c3c(F)cccc3Cl)cc21 [Example 464, (S)—N-(1-(6-(2-chloro-6-fluorophenyl)-1-neopentyl-1H-indol-3-yl)-2,2,2-trifluoroethyl)cyclopropanesulfonamide]
500 to 3000	CC(C)(C)Cn1cc([C@H](NS(=O)(=O)C2CC2)C(F)(F)F)c2cc(F)c(-c3cscn3)cc21 [Example 465, N-[(1S)-1-[1-(2,2-dimethylpropyl)-5-fluoro-6-thiazol-4-yl-indol-3-yl]-2,2,2-trifluoro-ethyl]cyclopropanesulfonamide]
< 500	CC(C)(C)Cn1cc([C@H](NS(=O)(=O)C2CC2)C(F)(F)F)c2ccc(-c3cccnc3C#N)cc21 [Example 466, (S)—N-(1-(6-(2-cyanopyridin-3-yl)-1-neopentyl-1H-indol-3-yl)-2,2,2-trifluoroethyl)cyclopropanesulfonamide]
500 to 3000	CC(C)(C)Cn1cc([C@H](NS(=O)(=O)C2CC2)C(F)(F)F)c2ccc(-c3ncccc3Cl)cc21 [Example 467, (S)—N-(1-(6-(3-chloropyridin-2-yl)-1-neopentyl-1H-indol-3-yl)-2,2,2-trifluoroethyl)cyclopropanesulfonamide]
< 500	CC(C)(C)Cn1cc([C@H](NS(=O)(=O)C2CC2)C(F)(F)F)c2ccc(-c3ncccc3C#N)cc21 [Example 468, (S)—N-(1-(6-(3-cyanopyridin-2-yl)-1-neopentyl-1H-indol-3-yl)-2,2,2-trifluoroethyl)cyclopropanesulfonamide]
500 to 3000	CC(C)(C)Cn1cc([C@H](NS(=O)(=O)C2CC2)C(F)(F)F)c2ccc(-c3ccccn3)cc21 [Example 469, (S)—N-(2,2,2-trifluoro-1-(1-neopentyl-6-(pyridin-2-yl)-1H-indol-3-yl)ethyl)cyclopropanesulfonamide]
< 500	CC(C)(C)Cn1cc([C@H](NS(=O)(=O)C2CC2)C(F)(F)F)c2ccc(-c3c(Cl)cncc3Cl)cc21 [Example 470, (S)—N-(1-(6-(3,5-dichloropyridin-4-yl)-1-neopentyl-1H-indol-3-yl)-2,2,2-trifluoroethyl)cyclopropanesulfonamide]
500 to 3000	CN(C)C(=O)c1ccccc1-c1ccc2c([C@H](NS(=O)(=O)C3CC3)C(F)(F)F)cn(CC(C)(C)C)c2c1 [Example 471, (S)-2-(3-(1-(cyclopropanesulfonamido)-2,2,2-trifluoroethyl)-1-neopentyl-1H-indol-6-yl)-N,N-dimethylbenzamide]
< 500	CC(C)(C)Cn1cc([C@H](NS(=O)(=O)C2CC2)C(F)(F)F)c2ccc(-c3ccc(F)cc3C#N)cc21 [Example 472, (S)—N-(1-(6-(2-cyano-4-fluorophenyl)-1-neopentyl-1H-indol-3-yl)-2,2,2-trifluoroethyl)cyclopropanesulfonamide]
500 to 3000	CC(C)(C)Cn1cc([C@H](NS(=O)(=O)C2CC2)C(F)(F)F)c2ccc(-c3cccc(C#N)c3F)cc21 [Example 473, (S)—N-(1-(6-(3-cyano-2-fluorophenyl)-1-neopentyl-1H-indol-3-yl)-2,2,2-trifluoroethyl)cyclopropanesulfonamide]
500 to 3000	CC(C)(O)Cn1cc([C@H](NS(=O)(=O)C2CC2)C(F)(F)F)c2cc(F)c(-c3ccccc3C(F)(F)F)cc21 [Example 474, N-[(1S)-2,2,2-trifluoro-1-[5-fluoro-1-(2-hydroxy-2-methyl-propyl)-6-[2-(trifluoromethyl)phenyl]indol-3-yl]ethyl]cyclopropanesulfonamide]
< 500	COC(C)(C)Cn1cc([C@H](NS(=O)(=O)C2CC2)C(F)(F)F)c2cc(F)c(-c3ccccc3C(F)(F)F)cc21 [Example 475, N-[(1S)-2,2,2-trifluoro-1-[5-fluoro-1-(2-methoxy-2-methyl-propyl)-6-[2-(trifluoromethyl)phenyl]indol-3-yl]ethyl]cyclopropanesulfonamide]
500 to 3000	N#CC1(Cn2cc([C@H](NS(=O)(=O)C3CC3)C(F)(F)F)c3cc(F)c(-c4ccccc4C(F)(F)F)cc32)CC1 [Example 476, N-[(1S)-1-[1-[(1-cyanocyclopropyl)methyl]-5-fluoro-6-[2-(trifluoromethyl)phenyl]indol-3-yl]-2,2,2-trifluoro-ethyl]cyclopropanesulfonamide]
